Patent US7771713B2, “Chemical composition that attract arthropods” (priority 1999, dated 2010)
Several values for one entry are separate records, joined by “and”; a condition that tells them apart may be missing. Identical values can stand only once.

Experiments:
Aedes albopictus = test: Olfactometer attraction test of compounds and compositions; type: in vivo
Source text: The olfactometer was cleaned after each battery of tests.

Anopheles albimanus = test: as above; type: in vivo;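 note: olfactometer with a treatment port and a matching control port using identical delivery device and conditions, both opened together, three tests per battery, each run in its own cage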
Aedes aegypti [1] = test: Olfactometer attraction test, treatment port vs control port, approximately 75 female mosquitoes; type: in vivo; conditions: for Response with L-LA (%): compound 500 μL together with L-lactic acid; for Δ [(Resp with LA) − Resp] (%): difference between response with L-lactic acid and response alone; for caught in CK (check or control port): compound alone 500 μL in treatment port; for Response with Ace (%): base compound together with acetone; for Δ [(Resp with Ace) − Resp] (%): difference between response with acetone and response alone; for LA Avg response: average of n = 51 trials, 200 μL of 1 μg/μL methanolic solution; for Acetone Avg response: average of n = 4 trials, 500 μL from a 60 mm diameter glass petri dish
Experimental: (§1) The tests were conducted in an olfactometer (55 ft^3/min airflow, 80° F., 60% R.H.) as described by Posey, J. Med. Entomol., 35, 330-334 (1998); and LA is lactic acid. Mosquitoes were allowed to settle at least one hour prior to testing. The olfactometer was cleaned after each battery of tests. Each battery consisted of three tests, conducted at 08:30, 11:00 and 13:00 hours local time. Each of the three tests was conducted in a separate cage. The control consisted of identical sample delivery devices and conditions compared to that of the treatment side. Both the treatment and control ports were opened and closed simultaneously when inserting a new treatment/control.

Aedes aegypti [2] = test: Formulation and verification of the best blend: one treatment vs another treatment in the olfactometer; conditions: 200 μg L-lactic acid (1w) vs. 200 μg L-lactic acid (1w) + Acetone (3B)
Experimental: as §1

[3] = compound alone, high dose of 500 μL
[4] = single compound, dose 500 (μL), 60 mL glass petri dish, Aedes aegypti attraction
[5] = no Base, Activator1 dose 500, 60 mL glass petri dish
[6] = base compound alone (mode of action similar to lactic acid)

Compound | % caught (Anopheles albimanus; single treatment, 500 μL) [%] | Response with L-LA (%) (Aedes aegypti [1]) | Response (%) (Aedes aegypti [1]; [3]) | Δ [(Resp with LA) − Resp] (%) (Aedes aegypti [1]) | also measured
NCCCCN [1,4-Diaminobutane] | – | – | – | – | % caught (Aedes albopictus; single treatment, 1B (1 black cap)): 6.8%
CCC(C)=O [2-butanone] | 47.9 | 81 | 28 | 53 | –
CCCCCCCCC(C)=O [2-decanone] | 4.0 | 24 | 14 | 10 | –
CCCCCC(C)=O [2-heptanone] | 10.4 | 42 | 17 | 25 | –
CCCCC(C)=O [2-hexanone] | 4.3 | 51 | 3 | 48 | Response Avg % (Aedes aegypti [1]; [4]): 3.0%
CCC(=O)C(C)C [2-methyl-3-pentanone] | 5.3 | 9 | 1 | 8 | Response Avg % (Aedes aegypti [1]; [4]): 1.0%
Cc1ccco1 [2-methylfuran] | 35.5 | 52 | 15 | 37 | caught in CK (check or control port) (Aedes aegypti [1]; mosquitoes in control port): 30%
CCCCCCCC(C)=O [2-nonanone] | 27.0 | 12 | 8 | 4 | –
CCCCCCC(C)=O [2-octanone] | 28.6 | 16 | 8 | 8 | –
CCCC(C)=O [2-pentanone] | 10.8 | 76 | 8 | 64 | –
C=CC(C)=O [3-buten-2-one] | 45.2 | 39 | 31 | 8 | caught in CK (check or control port), with L-LA (Aedes aegypti [1]; compound 500 μL with L-lactic acid in treatment port, mosquitoes in control port): 51%; caught in CK (check or control port) (Aedes aegypti [1]; mosquitoes in control port): 61%; Response Avg % (Aedes aegypti [1]; [5]): 31.0%
CCCCC(=O)CC [3-heptanone] | 11.3 | 36 | 12 | 24 | –
CCCC(=O)CC [3-hexanone] | 8.3 | 39 | 1 | 38 | Response Avg % (Aedes aegypti [1]; [4]): 1.0%
CC(=O)C(C)O (stereo not drawn) [3-hydroxy-2-butanone] | 1.3 | 35 | 11 | 24 | Response (%) (Aedes aegypti [1]; [6]): 9%; Response with Ace (%) (Aedes aegypti [1]): 57%; Δ [(Resp with Ace) − Resp] (%) (Aedes aegypti [1]): 48%
CC(=O)C(C)C [3-methyl-2-butanone] | 24.4 | 82 | 8 | 74 | –
CCC(C)C(C)=O (stereo not drawn) [3-methyl-2-pentanone] | 17.1 | 9 | 8 | 1 | –
CCCCCCC(=O)CC [3-nonanone] | 15.8 | 9 | 4 | 5 | Response Avg % (Aedes aegypti [1]; [4]): 4.0%
CCC(=O)CC [3-pentanone] | 53.9 | 28 | 12 | 16 | –
CCCC(=O)CCC [4-heptanone] | 8.0 | 32 | 12 | 20 | –
CC(=O)CC(C)C [4-methyl-2-pentanone] | 1.3 | 64 | 0 | 64 | Response Avg % (Aedes aegypti [1]; [4]): 0.0%
CCCCC(=O)CCCC [5-nonanone] | 12.7 | 47 | 14 | 33 | –
CC(=O)CCC=C(C)C [6-methyl-5-hepten-2-one] | 26.0 | 16 | 9 | 27 | –

Compound | % caught (Anopheles albimanus; single treatment, 500 μL) [%] | Response with L-LA (%) (Aedes aegypti [1]) | Response (%) (Aedes aegypti [1]; [3]) | Δ [(Resp with LA) − Resp] (%) (Aedes aegypti [1]) | also measured
C[C@H](O)C(=O)O [L-lactic acid] | – | – | – | – | % mosquitoes trapped, treatment vs treatment (Aedes aegypti [2]): 8%; % caught (Aedes albopictus; single substance, 200 μg, listed as LA): 11.7% and 8.3%; % caught (Anopheles albimanus; single substance, 400 μg dish): 1.3%; LA Avg response (Aedes aegypti [1]): 26%; LA Avg response (Aedes aegypti [1]; listed as LA): LA Avg: 1303/51 = 26%, n = 51 trials; Response (%) (Aedes aegypti [1]; [6]): 26%; Response with Ace (%) (Aedes aegypti [1]): 88%; Δ [(Resp with Ace) − Resp] (%) (Aedes aegypti [1]): 62%; L-lactic acid response (%) (Aedes aegypti [1]; single trials, 200 μL of a 1 μg/1 μL methanolic solution, dried 3 minutes in a petri dish, percentage caught of 75 female mosquitos): 27%
CC(=O)C(=O)O [Pyruvic Acid] | 1.4 | – | – | – | Response Avg % (Aedes aegypti [1]; Base alone, dose 50 uL): 30.7%
CC(C)=O [acetone] | 29.6 | – | – | 37 | % caught (Aedes albopictus; single substance, 500 μL Dish): 9.1%; Acetone Avg response (Aedes aegypti [1]): 51%; Acetone Avg response (Aedes aegypti [1]; listed as Acetone): Acetone Avg: 203/4 = 51%, n = 4 trials; Response with L-LA (%), average in parentheses (Aedes aegypti [1]; compound 500 μL with L-lactic acid, average of the trials): (88%); Response (%), average in parentheses (Aedes aegypti [1]; compound alone 500 μL, average of the trials): (51%); Acetone response (%) (Aedes aegypti [1]; single trials, 500 μL, plated on a small petri dish): 51% and 48% and 53%
CC(=O)c1ccccc1 [acetophenone] | 7.9 | 46 | 9 | 37 | –
O=Cc1ccccc1 [benzaldehyde] | 35.5 | 21 | 9 | 12 | –
N#Cc1ccccc1 [benzonitrile] | 3.8 | 48 | 4 | 42 | Response Avg % (Aedes aegypti [1]; [4]): 4.0%
CCCC=O [butyraldehyde] | 1.3 | 7 | 6 | 1 | Response (%) (Aedes aegypti [1]; [6]): 6%; Response with Ace (%) (Aedes aegypti [1]): 7%; Δ [(Resp with Ace) − Resp] (%) (Aedes aegypti [1]): 1%
S=C=S [carbon disulfide] | 56.0 | 89 | 82 | 7 | –
ClC(Cl)(Cl)Cl [carbon tetrachloride] | 74.0 | 92 | 92 | 0 | –
ClC(Cl)Cl [chloroform] | – | 76 | 24 | 52 | % caught (Anopheles albimanus; in vivo): 78.7%
CCSSCC [diethyl disulfide] | 2.8 | 49 | 33 | 16 | –
CCSCC [diethyl sulfide] | 33.3 | 54 | 15 | 39 | –
CSSC [dimethyl disulfide] | 97.3 | 86 | 36 | 50 | –
CSC [dimethyl sulfide] | 68.4 | 79 | 32 | 47 | –
CSSSC [dimethyl trisulfide] | 91.8 | 67 | 21 | 46 | Response Avg % (Aedes aegypti [1]; [5]): 21.0%
C=CSCC [ethyl vinyl sulfide] | 25.4 | 55 | 18 | 37 | Response Avg % (Aedes aegypti [1]; [5]): 18.0%
C=CC(=C)C [isoprene] | 0.0 | 23 | 12 | 11 | Response (%) (Aedes aegypti [1]; [6]): 12%; Response with Ace (%) (Aedes aegypti [1]): 56%; Δ [(Resp with Ace) − Resp] (%) (Aedes aegypti [1]): 44%
CCCSSC [methyl propyl disulfide] | 12.3 | 40 | 19 | 21 | –
ClCCl [methylene chloride] | 75.7 | 7090 | 87 | −7 | –
Cc1ccc(O)cc1 [p-cresol] | 29.5 | 32 | 5 | 27 | Response Avg % (Aedes aegypti [1]; [4]): 5.0%
N#CCc1ccccc1 [phenylacetonitrile] | 1.3 | 63 | 16 | 47 | –
